# Patent US8119624B2, “Fused phenyl amido heterocyclic compounds” (Pfizer Inc., priority 2006, dated 2012)
# Biological target: T1, Full-length glucokinase (beta cell isoform) (Homo sapiens, UniProt P35557)
# T1 construct: Full-length glucokinase (beta cell isoform) was His-tagged at N-terminus; His tag (N); made in house
# T1 sequence (P35557 1-465): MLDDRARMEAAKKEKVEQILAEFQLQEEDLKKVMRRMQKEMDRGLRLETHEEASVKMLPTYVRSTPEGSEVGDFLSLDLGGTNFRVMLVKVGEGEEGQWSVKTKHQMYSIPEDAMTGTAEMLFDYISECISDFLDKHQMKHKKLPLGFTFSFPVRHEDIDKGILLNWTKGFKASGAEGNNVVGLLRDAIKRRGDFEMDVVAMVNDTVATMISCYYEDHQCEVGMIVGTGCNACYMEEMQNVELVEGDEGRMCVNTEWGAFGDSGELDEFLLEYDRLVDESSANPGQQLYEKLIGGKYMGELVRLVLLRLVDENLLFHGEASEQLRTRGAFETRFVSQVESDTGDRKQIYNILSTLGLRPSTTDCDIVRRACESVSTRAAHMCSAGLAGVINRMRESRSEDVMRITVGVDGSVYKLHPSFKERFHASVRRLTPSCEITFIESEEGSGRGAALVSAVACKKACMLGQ
# Assay: Glucokinase biochemical assay (PK/LDH-coupled, NADH depletion at 340 nm): % activation, EC50, % max activation
# Conditions: 5 mM glucose; for activation at 10 µM: 10 uM compound, % Activation=(Va/Vo−1)×100, read-out: % Activation at 10 uM; for EC50: GK activation, read-out: EC50; for Emax: fitted maximum activation, read-out: % Max Activation
# Procedure, shortened: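 Activation expressed as (Va/Vo−1)×100, where initial rates with and without compound come from NADH depletion at 340 nm over 200–900 s. Enzyme is His-tagged human beta-cell GK, full length, run at room temperature in HEPES buffer with 1 mM ATP and 5 mM glucose. DMSO 1%.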
Structure (SMILES),activation at 10 µM [%],EC50 [nM],Emax [%]
"COCCNC(=O)c1ccc(Oc2cc(C(=O)Nc3ccn(C)n3)cc3c2CC(C)(C)O3)cc1F [Example 68, 4-[3-Fluoro-4-(2-methoxy-ethylcarbamoyl)-phenoxy]-2,2-dimethyl-2,3-dihydro-benzofuran-6-carboxylic acid(1-methyl-1H-pyrazol-3-yl)-amide]",146,660,175
"CNC(=O)c1ccc(Oc2cc(C(=O)Nc3ccn(C)n3)cc3c2CC(C)(C)O3)cc1F [Example 69, 4-(3-Fluoro-4-methylcarbamoyl-phenoxy)-2,2-dimethyl-2,3-dihydro-benzofuran-6-carboxylic acid(1-methyl-1H-pyrazol-3-yl)-amide]",122,370,129
"CCNC(=O)c1ccc(Oc2cc(C(=O)Nc3ccn(C)n3)cc3c2CC(C)(C)O3)cc1F [Example 70, 4-(4-Ethylcarbamoyl-3-fluoro-phenoxy)-2,2-dimethyl-2,3-dihydro-benzofuran-6-carboxylic acid(1-methyl-1H-pyrazol-3-yl)-amide]",132,150,118
"CC(C)NC(=O)c1ccc(Oc2cc(C(=O)Nc3ccn(C)n3)cc3c2CC(C)(C)O3)cc1F [Example 71, 4-(3-Fluoro-4-isopropylcarbamoyl-phenoxy)-2,2-dimethyl-2,3-dihydro-benzofuran-6-carboxylic acid(1-methyl-1H-pyrazol-3-yl)-amide]",181,410,167
"Cn1ccc(NC(=O)c2cc(Oc3ccc(C(=O)NCCO)c(F)c3)c3c(c2)OC(C)(C)C3)n1 [Example 72, 4-[3-Fluoro-4-(2-hydroxy-ethylcarbamoyl)-phenoxy]-2,2-dimethyl-2,3-dihydro-benzofuran-6-carboxylic acid(1-methyl-1H-pyrazol-3-yl)-amide]",182,950,161
"Cn1ccc(NC(=O)c2cc(Oc3ccc(C(=O)NC4CC4)c(F)c3)c3c(c2)OC(C)(C)C3)n1 [Example 73, 4-(4-Cyclopropylcarbamoyl-3-fluoro-phenoxy)-2,2-dimethyl-2,3-dihydro-benzofuran-6-carboxylic acid(1-methyl-1H-pyrazol-3-yl)-amide]",254,390,232
"Cn1ccc(NC(=O)c2cc(Oc3ccc(C(=O)NC4CCC4)c(F)c3)c3c(c2)OC(C)(C)C3)n1 [Example 74, 4-(4-Cyclobutylcarbamoyl-3-fluoro-phenoxy)-2,2-dimethyl-2,3-dihydro-benzofuran-6-carboxylic acid(1-methyl-1H-pyrazol-3-yl)-amide]",285,540,258
"Cn1ccc(NC(=O)c2cc(Oc3ccc(C(=O)NCCF)c(F)c3)c3c(c2)OC(C)(C)C3)n1 [Example 75, 4-[3-Fluoro-4-(2-fluoro-ethylcarbamoyl)-phenoxy]-2,2-dimethyl-2,3-dihydro-benzofuran-6-carboxylic acid(1-methyl-1H-pyrazol-3-yl)-amide]",193,260,189
"Cn1ccc(NC(=O)c2cc(Oc3ccc(C(=O)NCC(F)F)c(F)c3)c3c(c2)OC(C)(C)C3)n1 [Example 76, 4-[4-(2,2-Difluoro-ethylcarbamoyl)-3-fluoro-phenoxy]-2,2-dimethyl-2,3-dihydro-benzofuran-6-carboxylic acid(1-methyl-1H-pyrazol-3-yl)-amide]",203,470,206
"CC1(C)Cc2c(OCc3ccccc3)cc(C(=O)Nc3ccc(C(=O)O)cn3)cc2O1 [Example 77, 6-[(4-Benzyloxy-2,2-dimethyl-2,3-dihydro-benzofuran-6-carbonyl)-amino]-nicotinic acid]",64.4,150,66
"C[C@@H](Cc1ccccc1)Oc1cc(C(=O)Nc2ccn(C)n2)cc2c1CC(C)(C)O2 [Example 78, 2,2-Dimethyl-4-((S)-1-methyl-2-phenyl-ethoxy)-2,3-dihydro-benzofuran-6-carboxylic acid (1-methyl-1H-pyrazol-3-yl)-amide]",139,1470,149
"COc1ccc(CC(C)Oc2cc(C(=O)Nc3ccn(C)n3)cc3c2CC(C)(C)O3)cc1 (stereo not shown) [Example 79, 4-[2-(4-Methoxy-phenyl)-1-methyl-ethoxy]-2,2-dimethyl-2,3-dihydro-benzofuran-6-carboxylic acid (1-methyl-1H-pyrazol-3-yl)-amide]",148,2100,171
"Cn1ccc(NC(=O)c2cc(OCc3ccccc3)c3c(c2)OC(C)(C)C3)n1 [Example 80, 4-Benzyloxy-2,2-dimethyl-2,3-dihydro-benzofuran-6-carboxylic acid (1-methyl-1H-pyrazol-3-yl)-amide]",111,5900,176
"CC(Oc1cc(C(=O)Nc2ccn(C)n2)cc2c1CC(C)(C)O2)c1ccccn1 (stereo not shown) [Example 81, 2,2-Dimethyl-4-(1-pyridin-2-yl-ethoxy)-2,3-dihydro-benzofuran-6-carboxylic acid (1-methyl-1H-pyrazol-3-yl)-amide]",112,5300,148
"CC(Oc1cc(C(=O)Nc2ccn(C)n2)cc2c1CC(C)(C)O2)c1cnccn1 (stereo not shown) [Example 82, 2,2-Dimethyl-4-(1-pyrazin-2-yl-ethoxy)-2,3-dihydro-benzofuran-6-carboxylic acid (1-methyl-1H-pyrazol-3-yl)-amide]",110,5100,135
"Cc1nccnc1C(C)Oc1cc(C(=O)Nc2ccn(C)n2)cc2c1CC(C)(C)O2 (stereo not shown) [Example 83, 2,2-Dimethyl-4-[1-(3-methyl-pyrazin-2-yl)-ethoxy]-2,3-dihydro-benzofuran-6-carboxylic acid (1-methyl-1H-pyrazol-3-yl)-amide]",78.3,8200,148
"COCC(C)Oc1cc(C(=O)Nc2ccn(C)n2)cc2c1CC(C)(C)O2 (stereo not shown) [Example 84, 4-(2-Methoxy-1-methyl-ethoxy)-2,2-dimethyl-2,3-dihydro-benzofuran-6-carboxylic acid (1-methyl-1H-pyrazol-3-yl)-amide]",58.4,> 10000,–
"CC(CN1CCOCC1)Oc1cc(C(=O)Nc2ccn(C)n2)cc2c1CC(C)(C)O2 (stereo not shown) [Example 85, 2,2-Dimethyl-4-(1-methyl-2-morpholin-4-yl-ethoxy)-2,3-dihydro-benzofuran-6-carboxylic acid (1-methyl-1H-pyrazol-3-yl)-amide]",12,–,–
"CC(Oc1cc(C(=O)Nc2ccn(C)n2)cc2c1CC(C)(C)O2)c1ccncn1 (stereo not shown) [Example 86, 2,2-Dimethyl-4-(1-pyrimidin-4-yl-ethoxy)-2,3-dihydro-benzofuran-6-carboxylic acid (1-methyl-1H-pyrazol-3-yl)-amide]",124,4800,159
"Cc1ccnc(C(C)Oc2cc(C(=O)Nc3ccn(C)n3)cc3c2CC(C)(C)O3)c1 (stereo not shown) [Example 87, 2,2-Dimethyl-4-[1-(4-methyl-pyridin-2-yl)-ethoxy]-2,3-dihydro-benzofuran-6-carboxylic acid (1-methyl-1H-pyrazol-3-yl)-amide]",73.6,8600,136
"Cn1ccc(NC(=O)c2cc(OCc3cc(O)nc(-c4cnccn4)n3)c3c(c2)OC(C)(C)C3)n1 [Example 88, 4-(6-Hydroxy-2-pyrazin-2-yl-pyrimidin-4-ylmethoxy)-2,2-dimethyl-2,3-dihydro-benzofuran-6-carboxylic acid (1-methyl-1H-pyrazol-3-yl)-amide]",38.2,–,–
"Cn1ccc(NC(=O)c2cc(OCC3CC3)c3c(c2)OC(C)(C)C3)n1 [Example 89, 4-Cyclopropylmethoxy-2,2-dimethyl-2,3-dihydro-benzofuran-6-carboxylic acid (1-methyl-1H-pyrazol-3-yl)-amide]",139,3900,157
"Cc1nc(COc2cc(C(=O)Nc3ccn(C)n3)cc3c2CC(C)(C)O3)cs1 [Example 90, 2,2-Dimethyl-4-(2-methyl-thiazol-4-ylmethoxy)-2,3-dihydro-benzofuran-6-carboxylic acid (1-methyl-1H-pyrazol-3-yl)-amide]",112,5600,138
"Cn1ccc(NC(=O)c2cc(OCc3noc(C(C)(C)C)n3)c3c(c2)OC(C)(C)C3)n1 [Example 91, 4-(5-tert-Butyl-[1,2,4]oxadiazol-3-ylmethoxy)-2,2-dimethyl-2,3-dihydro-benzofuran-6-carboxylic acid (1-methyl-1H-pyrazol-3-yl)-amide]",150,3500,150
"CCOc1cc(C(=O)Nc2ccn(C)n2)cc2c1CC(C)(C)O2 [Example 92, 4-Ethoxy-2,2-dimethyl-2,3-dihydro-benzofuran-6-carboxylic acid (1-methyl-1H-pyrazol-3-yl)-amide]",87,9500,164
